Experimental findings from ChEMBL document CHEMBL1130772, “New nonsteroidal androgen receptor modulators based on 4-(trifluoromethyl)-2(1H)-pyrrolidino[3,2-g] quinolinone” (Bioorg Med Chem Lett, 1998) are described below.

Assay [1] concerns the target T1, Mineralocorticoid receptor (Homo sapiens) (UniProt P08235).
T1 sequence (whole entry): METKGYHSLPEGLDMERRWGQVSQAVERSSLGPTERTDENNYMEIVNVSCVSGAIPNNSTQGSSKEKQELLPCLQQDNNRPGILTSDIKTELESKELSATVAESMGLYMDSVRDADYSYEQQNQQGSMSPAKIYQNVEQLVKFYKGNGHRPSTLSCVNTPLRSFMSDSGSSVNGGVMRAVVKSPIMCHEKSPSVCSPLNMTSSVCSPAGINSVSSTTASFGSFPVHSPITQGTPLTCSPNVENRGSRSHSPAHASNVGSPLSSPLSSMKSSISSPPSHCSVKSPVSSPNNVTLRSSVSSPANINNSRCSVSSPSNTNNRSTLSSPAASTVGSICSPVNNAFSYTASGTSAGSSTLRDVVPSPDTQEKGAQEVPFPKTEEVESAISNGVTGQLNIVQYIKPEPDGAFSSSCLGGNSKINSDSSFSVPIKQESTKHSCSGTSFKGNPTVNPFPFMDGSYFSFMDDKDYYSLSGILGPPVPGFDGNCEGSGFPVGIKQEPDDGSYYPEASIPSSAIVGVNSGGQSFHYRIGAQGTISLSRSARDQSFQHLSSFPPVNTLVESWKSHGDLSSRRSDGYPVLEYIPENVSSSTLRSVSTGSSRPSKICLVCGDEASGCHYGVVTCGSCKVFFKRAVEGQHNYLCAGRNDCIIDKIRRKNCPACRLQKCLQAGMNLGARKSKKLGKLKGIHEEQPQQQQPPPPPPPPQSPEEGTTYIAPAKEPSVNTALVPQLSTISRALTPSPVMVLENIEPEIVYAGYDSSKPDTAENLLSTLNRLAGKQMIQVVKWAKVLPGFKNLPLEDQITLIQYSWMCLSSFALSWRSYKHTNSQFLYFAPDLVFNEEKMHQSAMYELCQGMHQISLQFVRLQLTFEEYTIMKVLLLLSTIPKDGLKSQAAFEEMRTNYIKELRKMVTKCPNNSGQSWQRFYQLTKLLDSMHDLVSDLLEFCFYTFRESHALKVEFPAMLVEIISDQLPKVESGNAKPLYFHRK
The assay is described as follows: (§1) Antagonistic activity against hMR in co-transfected CV-1 cell. It counts as functional, cell-based.

Assay [2] has as its target T2, Estrogen receptor (Homo sapiens, UniProt Q92731+P03372). The assay is described as follows: (§2) Antagonistic activity against Estrogen receptor in co-transfected CV-1 cell. In kind it is functional, cell-based.
The target of assay [3] is T3, Androgen receptor (Homo sapiens, UniProt P10275).
T3 sequence (P10275 whole entry): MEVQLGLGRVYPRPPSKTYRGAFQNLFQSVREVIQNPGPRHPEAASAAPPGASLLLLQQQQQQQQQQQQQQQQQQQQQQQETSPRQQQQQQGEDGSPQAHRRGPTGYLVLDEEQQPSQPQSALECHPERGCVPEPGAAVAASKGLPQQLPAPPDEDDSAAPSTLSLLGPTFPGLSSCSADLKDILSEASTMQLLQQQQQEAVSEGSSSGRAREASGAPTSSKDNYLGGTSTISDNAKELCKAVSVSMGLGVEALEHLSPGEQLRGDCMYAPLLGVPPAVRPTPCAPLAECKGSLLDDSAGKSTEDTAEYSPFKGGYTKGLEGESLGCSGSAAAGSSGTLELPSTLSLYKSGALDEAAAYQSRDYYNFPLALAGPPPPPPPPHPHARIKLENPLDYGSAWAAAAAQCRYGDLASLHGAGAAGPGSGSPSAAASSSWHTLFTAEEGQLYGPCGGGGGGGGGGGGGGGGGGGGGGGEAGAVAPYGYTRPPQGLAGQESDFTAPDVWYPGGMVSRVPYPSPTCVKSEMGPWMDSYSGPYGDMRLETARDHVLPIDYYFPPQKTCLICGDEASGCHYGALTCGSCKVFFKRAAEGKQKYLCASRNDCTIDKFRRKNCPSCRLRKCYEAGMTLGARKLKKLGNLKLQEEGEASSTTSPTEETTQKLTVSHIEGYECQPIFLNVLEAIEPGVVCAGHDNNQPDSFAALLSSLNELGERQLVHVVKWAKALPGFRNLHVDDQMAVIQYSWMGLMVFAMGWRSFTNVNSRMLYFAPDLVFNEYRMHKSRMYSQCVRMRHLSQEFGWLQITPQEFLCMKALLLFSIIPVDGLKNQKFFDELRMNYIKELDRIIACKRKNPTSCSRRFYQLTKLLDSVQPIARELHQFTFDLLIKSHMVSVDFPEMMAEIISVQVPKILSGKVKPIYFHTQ
The settings on record: cv-1.
Description: Agonistic activity against human androgen receptor (hAR) in co-transfected CV-1 cell

Another assay has as its target T4, Progesterone receptor (Homo sapiens, UniProt P06401).
T4 sequence (P06401 whole entry): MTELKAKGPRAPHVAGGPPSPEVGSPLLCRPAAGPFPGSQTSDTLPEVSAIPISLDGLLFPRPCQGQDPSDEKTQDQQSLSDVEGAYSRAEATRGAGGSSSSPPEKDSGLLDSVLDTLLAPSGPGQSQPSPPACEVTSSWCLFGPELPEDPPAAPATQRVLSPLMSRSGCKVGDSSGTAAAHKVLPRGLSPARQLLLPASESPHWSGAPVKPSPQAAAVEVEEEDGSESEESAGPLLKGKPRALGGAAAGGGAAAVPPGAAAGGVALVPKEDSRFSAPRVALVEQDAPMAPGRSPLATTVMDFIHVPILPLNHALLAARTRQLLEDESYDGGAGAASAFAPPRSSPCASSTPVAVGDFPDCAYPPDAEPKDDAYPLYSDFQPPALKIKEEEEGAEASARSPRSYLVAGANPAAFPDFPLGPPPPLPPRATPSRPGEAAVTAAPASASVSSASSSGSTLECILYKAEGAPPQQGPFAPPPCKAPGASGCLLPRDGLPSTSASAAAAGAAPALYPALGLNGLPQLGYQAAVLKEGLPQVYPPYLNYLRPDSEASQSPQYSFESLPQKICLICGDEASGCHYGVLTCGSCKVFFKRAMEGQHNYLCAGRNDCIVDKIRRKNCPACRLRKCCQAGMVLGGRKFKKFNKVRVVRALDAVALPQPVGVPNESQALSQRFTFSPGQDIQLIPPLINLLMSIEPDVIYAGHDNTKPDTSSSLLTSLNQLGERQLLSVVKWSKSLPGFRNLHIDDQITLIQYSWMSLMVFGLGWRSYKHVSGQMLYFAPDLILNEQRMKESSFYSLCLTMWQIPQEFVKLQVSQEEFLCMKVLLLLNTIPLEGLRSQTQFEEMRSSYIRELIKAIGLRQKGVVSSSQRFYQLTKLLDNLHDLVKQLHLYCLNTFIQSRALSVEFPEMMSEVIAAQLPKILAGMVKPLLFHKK
The assay is described as follows: (§3) Antagonistic activity against hPR in co-transfected CV-1 cell. It counts as functional, cell-based.

In assay [4] the target is T3, Androgen receptor. The assay is described as follows: Binding affinity against Androgen receptor transfected into COS cells.
The target of assay [5] is T2, Estrogen receptor. Described as §2. It counts as functional, cell-based. This is another data set of the same source.
The target in assay [6] is T3, Androgen receptor.
Description: Antagonistic activity (IC50) against human androgen receptor (hAR) in co-transfected CV-1 cell
Assay [7] has as its target T5, Progesterone receptor (Homo sapiens) (UniProt P06401).
T5 sequence (whole entry): T4 sequence (P06401 whole entry)
The assay is described as §3. In kind it is functional, cell-based.

The target in assay [8] is T6, Mineralocorticoid receptor (Homo sapiens, UniProt P08235).
T6 sequence (P08235 whole entry): T1 sequence (whole entry)
Described as §1. It counts as functional, cell-based.

SMILES strings stand for the structures. A value given as a limit tells only on which side of the number the result lay.

By IC50 is commonly meant the concentration that gives 50% inhibition. Lower therefore signals greater potency. By Ki is commonly meant the dissociation constant of the complex between target and ligand, obtained from inhibition or displacement. A low value points to a stronger hold on the target. On to `CC1(C)CCC[C@]2(C)c3cc4c(C(F)(F)F)cc(O)nc4cc3N[C@H]12`, for which the figures for the Efficacy (in assay [1]; on Estrogen receptor [5]; in assay [7]) were 77%, under 20% and 96%, respectively. Moreover, the IC50 at Estrogen receptor [2] was over 10000 nM; against Progesterone receptor, 430 nM; against Androgen receptor [6], 51 nM; in assay [8], 570 nM. The EC50 result at Androgen receptor [3] was “Not Active”. Further, the Ki at Androgen receptor [4] came out at 77 nM.

On to `C[C@H]1CC[C@H]2Nc3cc4c(cc3[C@H]2C1)c(C(F)(F)F)cc(=O)n4C`, for which the results for the Efficacy (in assay [1]; at Estrogen receptor [5]; in assay [7]) were under 20%, under 20% and 97%, respectively. In addition, the IC50 was over 10000 nM against Estrogen receptor [2], 380 nM against Progesterone receptor, 48 nM at Androgen receptor [6] and over 10000 nM in [8]. Further, the EC50 result on Androgen receptor [3] is “Not Active”. On Androgen receptor [4], this compound showed an inhibition constant Ki of 94 nM.

As to `CN1c2cc3c(cc2[C@H]2CCCC[C@H]21)c(C(F)(F)F)cc(=O)n3C`, the Efficacy was under 20% in assay [1], under 20% at Estrogen receptor [5] and 98% in [7]. The IC50 was over 10000 nM at Estrogen receptor [2], 1000 nM on Progesterone receptor, 36 nM against Androgen receptor [6] and over 10000 nM in [8]. For the same compound, the EC50 result on Androgen receptor [3] was “Not Active”. The same compound registered a Ki on Androgen receptor [4] of 10 nM.
